Laboratory results as given in patent US4659804A, “(Bis-1,7-S-acetamidomethyl-L-cysteine)salmon calcitonin” (Armour Pharmaceutical Company, priority 1984, dated 1987).

System: serum calcium concentration
Assay: Biological assay of calcitonin analogs in vivo: reduction of serum calcium concentration, 2×2 parallel line assay
Design: species or system Rats
Settings: standard salmon calcitonin used in the assay
Description: The biological potency of [1,7-Di-Cys(Acm)]salmon calcitonin was determined by comparing the reduction of serum calcium concentration which followed administration by graded doses of [1,7-Di-Cys(Acm)]SCT and synthetic salmon calcitonin standard. Rats were divided into four groups of seven animals, and each group was assigned at random to a dose of standard or test solution. Low and high doses were chosen from the linear portion of the dose-response curve. For the salmon calcitonin standard, the values were 0.7 and 2.1 mcg. peptide/100 g. body weight (BW). This dose approximates 3 and 9 MU/100 g. BW. Peptides were given by subcutaneous injection (0.2 ml/100 g. BW) and blood was withdrawn 1 hour later for serum calcium determination. Sera are processed and analyzed within two hours of collection. […]. Results were analyzed by a 2×2 parallel line assay [Gaddum, J. H., J. Pharm. Pharmacol., 6, 345 (1953)]. The standard salmon calcitonin used was independently determined to contain greater than 4,000 IU/mg. [1,7-Di-Cys(Acm)]SCT assayed at 4250 IU/mg.

Question: For `CC(C)C[C@H](NC(=O)[C@H](CCCCN)NC(=O)CNC(=O)[C@H](CC(C)C)NC(=O)[C@@H](NC(=O)[C@@H]1CSSC[C@H](N)C(=O)N[C@@H](CO)C(=O)N[C@@H](CC(N)=O)C(=O)N[C@@H](CC(C)C)C(=O)N[C@@H](CO)C(=O)N[C@@H]([C@@H](C)O)C(=O)N1)C(C)C)C(=O)N[C@@H](CO)C(=O)N[C@@H](CCC(N)=O)C(=O)N[C@@H](CCC(=O)O)C(=O)N[C@@H](CC(C)C)C(=O)N[C@@H](Cc1c[nH]cn1)C(=O)N[C@@H](CCCCN)C(=O)N[C@@H](CC(C)C)C(=O)N[C@@H](CCC(N)=O)C(=O)N[C@H](C(=O)N[C@@H](Cc1ccc(O)cc1)C(=O)N1CCC[C@H]1C(=O)N[C@@H](CCCNC(=N)N)C(=O)N[C@H](C(=O)N[C@@H](CC(N)=O)C(=O)N[C@H](C(=O)NCC(=O)N[C@@H](CO)C(=O)NCC(=O)N[C@H](C(=O)N1CCC[C@H]1C(N)=O)[C@@H](C)O)[C@@H](C)O)[C@@H](C)O)[C@@H](C)O` [standard salmon calcitonin, Salmon calcitonin], which “biological potency of the standard, independently determined” value is on record?
Answer: The value was “greater than 4,000 IU/mg”.
